Measured values: ChEMBL document CHEMBL1144071, “Elisabatins A and B: new amphilectane-type diterpenes from the West Indian sea whip Pseudopterogorgia elisabethae” (1999)
Calls of active or inactive are those of the source. No cut-off for these calls is given here.

Columns and labels:
[1] = test system: Human immunodeficiency virus; experiment: Antiviral activity against HIV by NCI test; format: functional, organism-based
[2] = test system: Mycobacterium tuberculosis; experiment: Antimycobacterial activity against Mycobacterium tuberculosis at 12.5 ug/mL; format: functional

## CC(C)=C[C@@H]1C[C@H](C)c2c(O)cc(C)c3c2C1=C(C)C(=O)C3=O [ELISABATIN A]
[1]
  Activity: inactive
[2]
  Activity: 21%
